This is an account of results in US5972932A, “Anesthetic method and composition” (Eli Lilly and Company, priority 1997, dated 1999).

Assay [1] concerns muscarinic cholinergic receptor. As to the kind of experiment: pharmacological studies, muscarinic cholinergic receptor activity.
In assay [2] the test system is 5-HT2C (formorly knowm as 5-HT1C receptor) receptor. As to the kind of experiment: pharmacological studies, 5-HT2C receptor activity. The note with it: formerly 5-HT1C receptor.

Turning to `Cc1cc2c(s1)Nc1ccccc1N=C2N1CCN(C)CC1` [olanzapine, 2-methyl-4-(4-methyl-1-piperazinyl)-10H-thieno[2,3-b][1,5]benzodiazepine], the “muscarinic cholinergic receptor activity” value in assay [1] is on record as “has muscarinic cholinergic receptor activity”. Moreover, the “activity at the 5-HT2C receptor” value in assay [2] was “active”.
